Results published in ChEMBL document CHEMBL1201862, “PubChem BioAssay data set” (2004).
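Interpolation was linear, between the two tested concentrations surrounding the appropriate level; five concentrations were tested over 48 hours in 96-well plates. GI50 marks 50% less growth.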 Calls of active or inactive are those of the source. Rule as the data show it: active = GI50 up to about 1.1 µM and inactive = higher.

Legend:
Experiment in all cases: NCI anticancer screen, dose series, 48 h
NCI-H23 = tested on: NCI-H23
A549 = tested on: A549
UACC-62 = tested on: UACC-62
MOLT-4 = tested on: MOLT-4
Malme-3M = tested on: Malme-3M
LOX IMVI = tested on: LOX IMVI
RXF 393 = tested on: RXF 393
HCT-15 = tested on: HCT-15
HCC 2998 = tested on: HCC 2998
786-0 = tested on: 786-0
T47D = tested on: T47D
EKVX = tested on: EKVX
HL-60 = tested on: HL-60
MDA-N = tested on: MDA-N
IGROV-1 = tested on: IGROV-1
SN12C = tested on: SN12C
M14 = tested on: M14
SR = tested on: SR
MDA-MB-231 = tested on: MDA-MB-231
K562 = tested on: K562
HOP-92 = tested on: HOP-92
CAKI-1 = tested on: CAKI-1
MCF7 = tested on: MCF7
UACC-257 = tested on: UACC-257
HOP-62 = tested on: HOP-62
KM12 = tested on: KM12
SK-OV-3 = tested on: SK-OV-3
HT-29 = tested on: HT-29
SW-620 = tested on: SW-620
SF-295 = tested on: SF-295
CCRF-CEM = tested on: CCRF-CEM
RPMI-8226 = tested on: RPMI-8226
DU-145 = tested on: DU-145
SNB-75 = tested on: SNB-75
MDA-MB-435 = tested on: MDA-MB-435
PC-3 = tested on: PC-3
TK-10 = tested on: TK-10
OVCAR-8 = tested on: OVCAR-8
OVCAR-4 = tested on: OVCAR-4
SK-MEL-5 = tested on: SK-MEL-5
SF-268 = tested on: SF-268
SK-MEL-28 = tested on: SK-MEL-28
COLO 205 = tested on: COLO 205

Measured: GI50

c1csc(-c2sc(-c3ccsc3)cc2Cc2ccsc2)c1
> 10 µM: HCT-15
inactive: NCI-H23 > 10 µM | A549 > 10 µM | UACC-62 > 10 µM | MOLT-4 > 10 µM | Malme-3M > 10 µM | LOX IMVI > 10 µM | RXF 393 > 10 µM | HCC 2998 > 10 µM | 786-0 > 10 µM | T47D > 10 µM | EKVX > 10 µM | HL-60 > 10 µM | MDA-N > 10 µM | IGROV-1 > 10 µM | SN12C > 10 µM | M14 > 10 µM | SR > 10 µM | MDA-MB-231 > 10 µM | K562 > 10 µM | HOP-92 > 10 µM | CAKI-1 > 10 µM | MCF7 > 10 µM | UACC-257 > 10 µM | HOP-62 > 10 µM | KM12 > 10 µM | SK-OV-3 > 10 µM | HT-29 > 10 µM | SW-620 > 10 µM | SF-295 > 10 µM | CCRF-CEM > 10 µM | RPMI-8226 > 10 µM | DU-145 > 10 µM | SNB-75 > 10 µM | MDA-MB-435 > 10 µM | PC-3 > 10 µM | TK-10 > 10 µM | OVCAR-8 > 10 µM | OVCAR-4 > 10 µM | SK-MEL-5 > 10 µM | SF-268 > 10 µM | SK-MEL-28 > 10 µM | COLO 205 > 10 µM
